Experiments:
Experiment in all cases: Enzyme Assay
PIK3CD (Human) = PIK3CD (Human) (UniProt O00329)
PIK3CG (human) = PIK3CG (human) (UniProt P48736)
PIK3CB (Human) = PIK3CB (Human) (UniProt P42338)
PIK3CB (Human), sequence (P42338 whole entry, looked up): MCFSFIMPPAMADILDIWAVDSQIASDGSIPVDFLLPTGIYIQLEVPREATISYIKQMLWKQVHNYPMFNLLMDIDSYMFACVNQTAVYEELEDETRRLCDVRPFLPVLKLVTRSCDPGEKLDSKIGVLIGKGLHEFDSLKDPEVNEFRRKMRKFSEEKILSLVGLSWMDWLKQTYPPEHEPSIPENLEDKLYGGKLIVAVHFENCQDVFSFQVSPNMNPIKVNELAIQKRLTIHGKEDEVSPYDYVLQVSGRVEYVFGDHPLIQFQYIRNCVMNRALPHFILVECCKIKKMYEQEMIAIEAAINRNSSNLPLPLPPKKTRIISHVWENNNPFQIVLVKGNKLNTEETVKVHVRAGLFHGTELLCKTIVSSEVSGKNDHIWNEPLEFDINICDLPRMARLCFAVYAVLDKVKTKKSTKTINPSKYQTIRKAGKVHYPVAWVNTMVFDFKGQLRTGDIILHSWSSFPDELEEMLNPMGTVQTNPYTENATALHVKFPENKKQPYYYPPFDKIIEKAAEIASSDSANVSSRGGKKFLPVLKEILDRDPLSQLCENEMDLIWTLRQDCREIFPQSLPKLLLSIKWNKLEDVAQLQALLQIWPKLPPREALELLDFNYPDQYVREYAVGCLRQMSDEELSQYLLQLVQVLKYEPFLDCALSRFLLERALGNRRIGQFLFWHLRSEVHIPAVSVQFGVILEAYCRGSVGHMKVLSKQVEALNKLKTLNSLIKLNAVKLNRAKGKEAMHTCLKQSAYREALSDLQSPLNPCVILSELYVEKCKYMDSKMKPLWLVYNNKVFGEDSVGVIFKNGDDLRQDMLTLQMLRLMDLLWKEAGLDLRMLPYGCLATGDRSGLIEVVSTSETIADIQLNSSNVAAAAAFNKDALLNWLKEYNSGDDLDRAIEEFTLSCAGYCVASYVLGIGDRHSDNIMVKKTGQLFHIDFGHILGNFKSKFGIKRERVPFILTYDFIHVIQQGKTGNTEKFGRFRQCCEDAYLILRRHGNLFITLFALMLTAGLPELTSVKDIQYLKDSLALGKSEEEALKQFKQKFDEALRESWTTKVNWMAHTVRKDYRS

PIK3CG (human), sequence (P48736 whole entry, looked up): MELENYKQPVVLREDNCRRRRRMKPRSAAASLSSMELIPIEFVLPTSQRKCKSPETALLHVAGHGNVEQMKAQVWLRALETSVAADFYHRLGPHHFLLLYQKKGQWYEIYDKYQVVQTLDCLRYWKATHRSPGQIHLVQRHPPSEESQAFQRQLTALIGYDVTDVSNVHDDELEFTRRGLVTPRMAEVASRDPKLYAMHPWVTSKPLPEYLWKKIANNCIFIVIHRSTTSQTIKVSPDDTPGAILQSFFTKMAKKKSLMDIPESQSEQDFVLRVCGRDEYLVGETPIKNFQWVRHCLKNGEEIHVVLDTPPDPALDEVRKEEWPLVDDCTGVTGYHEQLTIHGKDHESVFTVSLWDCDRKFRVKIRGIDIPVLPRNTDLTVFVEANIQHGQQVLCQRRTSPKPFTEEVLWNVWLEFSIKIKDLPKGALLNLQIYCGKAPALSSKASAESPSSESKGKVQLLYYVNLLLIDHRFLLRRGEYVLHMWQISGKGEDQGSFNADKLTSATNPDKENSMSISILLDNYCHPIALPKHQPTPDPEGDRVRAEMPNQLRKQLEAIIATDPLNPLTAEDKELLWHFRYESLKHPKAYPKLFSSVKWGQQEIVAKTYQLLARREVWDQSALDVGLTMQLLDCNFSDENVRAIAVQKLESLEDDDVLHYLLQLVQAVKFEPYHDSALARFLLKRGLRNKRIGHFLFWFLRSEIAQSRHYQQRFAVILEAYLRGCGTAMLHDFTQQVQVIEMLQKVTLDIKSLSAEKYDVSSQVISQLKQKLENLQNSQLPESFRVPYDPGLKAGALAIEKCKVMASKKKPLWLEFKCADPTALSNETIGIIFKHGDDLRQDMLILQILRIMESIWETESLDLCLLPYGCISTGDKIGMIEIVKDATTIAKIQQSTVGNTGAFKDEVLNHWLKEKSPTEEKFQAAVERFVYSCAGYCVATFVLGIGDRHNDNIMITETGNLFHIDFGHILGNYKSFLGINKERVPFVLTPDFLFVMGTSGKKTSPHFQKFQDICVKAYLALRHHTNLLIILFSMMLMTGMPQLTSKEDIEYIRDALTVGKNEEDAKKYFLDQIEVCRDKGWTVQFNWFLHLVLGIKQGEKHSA
PIK3CD (Human), sequence (O00329 whole entry, looked up): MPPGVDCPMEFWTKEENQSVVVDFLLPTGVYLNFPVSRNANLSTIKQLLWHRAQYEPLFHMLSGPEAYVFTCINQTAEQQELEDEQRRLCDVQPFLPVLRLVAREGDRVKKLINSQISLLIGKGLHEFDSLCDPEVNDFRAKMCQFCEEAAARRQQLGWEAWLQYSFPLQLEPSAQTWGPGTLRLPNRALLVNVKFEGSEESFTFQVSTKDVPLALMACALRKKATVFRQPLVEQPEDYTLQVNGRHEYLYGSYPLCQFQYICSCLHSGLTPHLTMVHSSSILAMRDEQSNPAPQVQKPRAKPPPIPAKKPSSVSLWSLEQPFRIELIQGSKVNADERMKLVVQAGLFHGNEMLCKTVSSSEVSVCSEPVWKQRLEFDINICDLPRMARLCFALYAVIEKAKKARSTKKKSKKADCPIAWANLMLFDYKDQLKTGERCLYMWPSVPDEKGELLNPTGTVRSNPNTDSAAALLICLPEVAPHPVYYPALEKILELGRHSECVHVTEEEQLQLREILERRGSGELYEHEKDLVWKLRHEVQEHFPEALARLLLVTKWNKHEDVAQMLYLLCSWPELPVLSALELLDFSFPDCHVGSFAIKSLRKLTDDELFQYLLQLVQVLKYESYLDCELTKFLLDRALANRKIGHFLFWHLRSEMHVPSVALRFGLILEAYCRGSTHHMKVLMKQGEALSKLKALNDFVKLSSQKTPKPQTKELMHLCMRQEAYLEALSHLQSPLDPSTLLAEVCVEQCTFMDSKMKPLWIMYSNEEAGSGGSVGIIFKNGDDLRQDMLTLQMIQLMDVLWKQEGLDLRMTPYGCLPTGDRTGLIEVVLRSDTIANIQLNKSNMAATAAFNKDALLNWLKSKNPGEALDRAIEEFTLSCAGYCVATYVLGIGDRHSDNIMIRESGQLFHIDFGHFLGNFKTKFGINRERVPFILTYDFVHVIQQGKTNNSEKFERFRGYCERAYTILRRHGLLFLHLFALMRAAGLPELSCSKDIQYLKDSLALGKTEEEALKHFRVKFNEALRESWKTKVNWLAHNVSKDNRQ

## Nc1ncc([N+](=O)O)c(N2CC[C@H]2c2nn3ccc(Cl)c3c(=O)n2-c2ccccc2)n1
PIK3CD (Human)
  IC50: 40 nM
PIK3CG (human)
  IC50: 25 nM

## C[S@+]([O-])c1c[nH]c2ncnc(N3C[C@@H](C#N)C[C@H]3c3nn4ccc(Cl)c4c(=O)n3-c3ccccc3)c12
PIK3CB (Human)
  IC50: 256 nM
PIK3CD (Human)
  IC50: 21 nM
PIK3CG (human)
  IC50: 38 nM

## Nc1ncc(C(=O)C(F)F)c(N2CC[C@H]2c2nn3ccc(Cl)c3c(=O)n2-c2ccccc2)n1
PIK3CD (Human)
  IC50: 38 nM
PIK3CG (human)
  IC50: 10 nM

## C[C@H]1CN(c2nc(N)nc3c2C(=O)CCN3)[C@@H]1c1nn2ccc(Cl)c2c(=O)n1-c1ccccn1
PIK3CB (Human)
  IC50: 1580 nM
PIK3CD (Human)
  IC50: 12 nM
PIK3CG (human)
  IC50: 18 nM

## N#Cc1c(N)ncnc1OCc1cc2ncc(Cl)n2c(=O)n1-c1ccccc1
PIK3CD (Human)
  IC50: 136 nM

## CC(Nc1ncnc2[nH]cc(C#N)c12)c1cc2cccn2c(=O)n1-c1ccccc1 (configuration not stated)
PIK3CG (human)
  IC50: 105 nM

## COc1cccc(-n2c([C@@H]3CCCN3c3ncnc4[nH]cc(C#N)c34)nn3cccc3c2=O)c1
PIK3CD (Human)
  IC50: 5 nM
PIK3CG (human)
  IC50: 89 nM

## COc1ncc(-c2n[nH]c3ncnc(N4CCC[C@H]4c4nn5ccc(Cl)c5c(=O)n4-c4ccccc4)c23)cn1
PIK3CB (Human)
  IC50: 47 nM
PIK3CD (Human)
  IC50: 1 nM
PIK3CG (human)
  IC50: 15 nM

## C[S@@+]([O-])c1c[nH]c2ncnc(N3C[C@@H](C#N)C[C@H]3c3nn4ccc(Cl)c4c(=O)n3-c3ccccc3)c12
PIK3CD (Human)
  IC50: 64 nM
PIK3CG (human)
  IC50: 16 nM

## N#Cc1n[nH]c2ncnc(N3CCC[C@H]3c3nn4cccc4c(=O)n3-c3ccccc3)c12
PIK3CD (Human)
  IC50: 26 nM
PIK3CG (human)
  IC50: 231 nM

## C=Cc1ccn2nc([C@@H]3CCN3c3ncnc4[nH]cc(C#N)c34)n(-c3ccccc3)c(=O)c12
PIK3CD (Human)
  IC50: 300 nM

## N#Cc1c[nH]c2ncnc(N3CC[C@H]3c3nn4cccc4c(=O)n3-c3ccccc3)c12
PIK3CD (Human)
  IC50: 93 nM

## Nc1nc(N2CCC[C@H]2c2nn3cccc3c(=O)n2-c2ccccc2)c2nc[nH]c2n1
PIK3CD (Human)
  IC50: 6 nM
PIK3CG (human)
  IC50: 40 nM

## O=c1c2c(Br)ccn2nc([C@@H]2CCN2c2ncnc3[nH]cnc23)n1-c1ccccc1
PIK3CD (Human)
  IC50: 156 nM
PIK3CG (human)
  IC50: 287 nM

Reference: the Kinase Knowledgebase extract (Sharma et al. 2016)
